# From US9174997B2, “4-(4-cyano-2-thioaryl)dihydropyrimidinones and use thereof” (Bayer Intellectual Property GmbH, priority 2007, dated 2015)
# Target: human neutrophil elastase (HNE) (Homo sapiens (Human), UniProt P08246)
# Assay: In vitro HNE inhibition assay
# Assay type: biochemical
# Conditions: HNE concentration of 80 pM; substrate MeOSuc-Ala-Ala-Pro-Val-AMC; 37° C. for 2 hours
# Method: B-1. In Vitro HNE Inhibition Assay
# The potency of the compounds of the invention is ascertained in an in vitro inhibition assay. The HNE-mediated amidolytic cleavage of a suitable peptide substrate leads in this connection to an increase in the fluorescent light. The signal intensity of the fluorescent light is directly proportional to the enzyme activity.
# Enzyme ([…]; from Serva, Heidelberg) and substrate (20 μM MeOSuc-Ala-Ala-Pro-Val-AMC; from Bachem, Weil am Rhein) are incubated in an assay volume of in total 50 μl of assay buffer (0.1 M HEPES pH 7.4, 0.5 M NaCl, 0.1% w/v BSA, 1% v/v DMSO) in a 384-well microtiter plate in the presence and absence of the test substance at 37° C. for 2 hours. […] The IC50 values are determined by plotting the intensity of the fluorescent light against the active substance concentration.
# Sequence of human neutrophil elastase (HNE) (P08246 30-267): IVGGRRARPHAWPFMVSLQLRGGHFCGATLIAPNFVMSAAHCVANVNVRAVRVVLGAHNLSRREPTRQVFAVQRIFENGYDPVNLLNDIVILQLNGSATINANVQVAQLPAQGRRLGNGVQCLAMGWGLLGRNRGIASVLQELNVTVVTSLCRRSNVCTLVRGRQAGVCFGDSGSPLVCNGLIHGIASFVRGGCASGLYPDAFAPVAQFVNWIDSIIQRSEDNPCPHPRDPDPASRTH
row,IC50,Structure (SMILES)
1,1.1 nM,"CC1=C(C#N)C(c2ccc(C#N)cc2S(=O)(=O)CCO)NC(=O)N1c1cccc(C(F)(F)F)c1 (racemic) [Example 132, (rac)-4-[4-Cyano-2-((2-hydroxyethyl)sulfonyl)phenyl]-6-methyl-2-oxo-1-[3-(trifluoromethyl)phenyl]-1,2,3,4-tetrahydropyrimidine-5-carbonitrile]"
2,< 0.3 nM,"CC1=C(C#N)[C@@H](c2ccc(C#N)cc2S(C)(=O)=O)N(C(=O)N2CC(O)C2)C(=O)N1c1cccc(C(F)(F)F)c1 [Example 51, (4S)-4-[4-Cyano-2-(methylsulfonyl)phenyl]-3-[(3-hydroxyazetidin-1-yl)carbonyl]-6-methyl-2-oxo-1-[3-(trifluoromethyl)phenyl]-1,2,3,4-tetrahydropyrimidine-5-carbonitrile]"
3,< 0.3 nM,"CC1=C(C#N)[C@@H](c2ccc(C#N)cc2S(C)(=O)=O)N(C(=O)OCc2ccccc2)C(=O)N1c1cccc(C(F)(F)F)c1 (stereo in doubt) [Example 120, Benzyl 5-cyano-6-[4-cyano-2-(methylsulfonyl)phenyl]-4-methyl-2-oxo-3-[3-(trifluoromethyl)phenyl]-3,6-dihydropyrimidine-1(2H)-carboxylate]"
4,< 0.3 nM,"CC1=C(C#N)[C@@H](c2ccc(C#N)cc2S(=O)(=O)c2ccccc2)NC(=O)N1c1cccc(C(F)(F)F)c1 [Example 141, (4S)-4-{4-Cyano-2-[phenylsulfonyl]phenyl}-6-methyl-2-oxo-1-[3-(trifluoromethyl)phenyl]-1,2,3,4-tetrahydropyrimidine-5-carbonitrile]"
5,< 0.3 nM,CC1=C(C#N)[C@@H](c2ccc(C#N)cc2S(C)(=O)=O)N(C(=O)NC(C)(C)CO)C(=O)N1c1cccc(C(F)(F)F)c1 [Example 85]
6,< 0.3 nM,CC1=C(C#N)[C@@H](c2ccc(C#N)cc2S(C)(=O)=O)N(S(=O)(=O)c2cnn(C(F)F)c2C)C(=O)N1c1cccc(C(F)(F)F)c1 [Example 96]

# Continued, compound first:
row,Structure (SMILES),IC50
1,"CC1=C(C#N)[C@@H](c2ccc(C#N)cc2S(C)(=O)=O)N(C(=O)N2CCN(CCO)CC2)C(=O)N1c1cccc(C(F)(F)F)c1 [Example 20, (4S)-4-[4-Cyano-2-(methylsulfonyl)phenyl]-3-{[4-(2-hydroxyethyl)piperazin-1-yl]carbonyl}-6-methyl-2-oxo-1-[3-(trifluoromethyl)phenyl]-1,2,3,4-tetrahydropyrimidine-5-carbonitrile]",1.9 nM
2,"CC1=C(C#N)[C@@H](c2ccc(C#N)cc2S(C)(=O)=O)N(C(=O)N2CC[C@H](O)C2)C(=O)N1c1cccc(C(F)(F)F)c1 [Example 18, (4S)-4-[4-Cyano-2-(methylsulfonyl)phenyl]-3-{[(3S)-3-hydroxypyrrolidin-1-yl]carbonyl}-6-methyl-2-oxo-1-[3-(trifluoromethyl)phenyl]-1,2,3,4-tetrahydropyrimidine-5-carbonitrile]",< 0.3 nM

# System: rat hepatocytes
# Assay: Hepatocyte assay to determine the metabolic stability
# Assay type: in vitro ADME
# Conditions: after incubation with rat hepatocytes
# Method: B-6. Hepatocyte Assay to Determine the Metabolic Stability
# The metabolic stability of test compounds in the presence of hepatocytes is determined by incubating the compounds with low concentrations (preferably below or around 1 μM) and with low cell counts (preferably 1*10^6 cells/ml) in order to ensure as far as possible linear kinetic conditions in the experiment. Seven samples of the incubation solution are taken in a fixed time pattern for the […] analysis in order to determine the half-life (i.e. the degradation) of the compound in each case. Various clearance parameters (CL) and Fmax values are calculated from this half-life (see below).
# The Cl and Fmax values represent a measure of the phase 1 and phase 2 metabolism of the compounds in the hepatocytes. In order to minimize the influence of the organic solvent on the enzymes in the incubation mixtures, this concentration is generally limited to 1% (acetonitrile) or 0.1% (DMSO).
# A cell count for hepatocytes in the liver of 1.1*10^8 cells/g of liver is used for calculation for all species and breeds.
# The calculated parameters and their meaning are:
# Representative values for the compounds according to the invention from this assay after incubation of the compounds with rat hepatocytes are shown in Table B below: […]
"CLblood, calculated blood clearance (well stirred model)","Fmax, maximum possible bioavailability after oral administration (well-stirred)",Structure (SMILES)
0.2 L/h/kg,94%,"CCS(=O)(=O)c1cc(C#N)ccc1[C@H]1NC(=O)N(c2cccc(C(F)(F)F)c2)C(C)=C1C#N [Example 127, (4S)-4-[4-Cyano-2-(ethylsulfonyl)phenyl]-6-methyl-2-oxo-1-[3-(trifluoromethyl)phenyl]-1,2,3,4-tetrahydropyrimidine-5-carbonitrile]"
1.0 L/h/kg,75%,"CN1CC2=C(C1=O)[C@@H](c1ccc(C#N)cc1S(C)(=O)=O)N(C)C(=O)N2c1cccc(C(F)(F)F)c1 [Example 123, 4-(4S)-3,6-Dimethyl-2,5-dioxo-1-[3-(trifluoromethyl)phenyl]-2,3,4,5,6,7-hexahydro-1 H-pyrrolo[3,4-d]pyrimidin-4-yl-3-(methylsulfonyl)benzonitrile]"
0.1 L/h/kg,97%,"CC1=C(C#N)[C@@H](c2ccc(C#N)cc2S(C)(=O)=O)N(c2ccc(C#N)cc2)C(=O)N1c1cccc(C(F)(F)F)c1 [Example 117, (4S)-4-[4-Cyano-2-(methylsulfonyl)phenyl]-3-(4-cyanophenyl)-6-methyl-2-oxo-1-[3-(trifluoromethyl)phenyl]-1,2,3,4-tetrahydropyrimidine-5-carbonitrile]"
0.7 L/h/kg,83%,CC1=C(C#N)[C@@H](c2ccc(C#N)cc2S(C)(=O)=O)N(S(=O)(=O)c2cn(C)c(C)n2)C(=O)N1c1cccc(C(F)(F)F)c1 [Example 92]
0.9 L/h/kg,79%,"CCS(=O)(=O)c1cc(C#N)ccc1[C@@H]1C(C#N)=C(C)N(c2cccc(C(F)(F)F)c2)C(=O)N1S(C)(=O)=O [Example 129, (4S)-4-[4-Cyano-2-(ethylsulfonyl)phenyl]-6-methyl-3-(methylsulfonyl)-2-oxo-1-[3-(trifluoromethyl)phenyl]-1,2,3,4-tetrahydropyrimidine-5-carbonitrile]"
0.6 L/h/kg,86%,"CC1=C(C#N)[C@@H](c2ccc(C#N)cc2S(C)(=O)=O)N(c2cccc(C(F)(F)F)c2)C(=O)N1c1cccc(C(F)(F)F)c1 [Example 118, (4S)-4-[4-Cyano-2-(methylsulfonyl)phenyl]-6-methyl-2-oxo-1,3-bis[3-(trifluoromethyl)phenyl]-1,2,3,4-tetrahydropyrimidine-5-carbonitrile]"

# The remaining lines, values behind:
Structure (SMILES),"CLblood, calculated blood clearance (well stirred model)","Fmax, maximum possible bioavailability after oral administration (well-stirred)"
"CC1=C(C(N)=O)[C@@H](c2ccc(C#N)cc2S(C)(=O)=O)NC(=O)N1c1cccc(C(F)(F)F)c1 [Example 5, (4S)-4-[4-Cyano-2-(methylsulfonyl)phenyl]-6-methyl-2-oxo-1-[3-(trifluoromethyl)phenyl]-1,2,3,4-tetrahydropyrimidine-5-carboxamide]",0.0 L/h/kg,100%
"CCS(=O)(=O)N1C(=O)N(c2cccc(C(F)(F)F)c2)C(C)=C(C#N)[C@H]1c1ccc(C#N)cc1S(C)(=O)=O [Example 31, (4S)-4-[4-Cyano-2-(methylsulfonyl)phenyl]-6-methyl-3-(ethylsulfonyl)-2-oxo-1-[3-(trifluoromethyl)phenyl]-1,2,3,4-tetrahydropyrimidine-5-carbonitrile]",0.4 L/h/kg,91%
"CC1=C(C#N)[C@@H](c2ccc(C#N)cc2S(C)(=O)=O)N(S(=O)(=O)c2ccccc2OC(F)(F)F)C(=O)N1c1cccc(C(F)(F)F)c1 [Example 29, (4S)-4-[4-Cyano-2-(methylsulfonyl)phenyl]-6-methyl-3-{[2-(trifluoromethoxy)phenyl]sulfonyl}-2-oxo-1-[3-(trifluoromethyl)phenyl]-1,2,3,4-tetrahydropyrimidine-5-carbonitrile]",0.4 L/h/kg,90%
"CC1=C(C#N)[C@@H](c2ccc(C#N)cc2S(C)(=O)=O)N(CC(=O)N2CCNC(=O)C2)C(=O)N1c1cccc(C(F)(F)F)c1 [Example 25, (4S)-4-[4-Cyano-2-(methylsulfonyl)phenyl]-6-methyl-2-oxo-3-[2-oxo-2-(3-oxopiperazin-1-yl)ethyl]-1-[3-(trifluoromethyl)phenyl]-1,2,3,4-tetrahydropyrimidine-5-carbonitrile]",0.3 L/h/kg,93%
"CN1CC2=C(C1=O)C(c1ccc(C#N)cc1S(C)(=O)=O)N(C(=O)NCCO)C(=O)N2c1cccc(C(F)(F)F)c1 (racemic) [Example 38, (rac)-4-[4-Cyano-2-(methylsulfonyl)phenyl]-N-(2-hydroxyethyl)-6-methyl-2,5-dioxo-1-[3-(trifluoromethyl)phenyl]-1,2,4,5,6,7-hexahydro-3H-pyrrolo[3,4-d]pyrimidine-3-carboxamide]",0.2 L/h/kg,96%
"CC1=C(C#N)[C@@H](c2ccc(C#N)cc2S(C)(=O)=O)NC(=O)N1c1cccc(C(F)(F)F)c1 [Example 6, (4S)-4-[4-Cyano-2-(methylsulfonyl)phenyl]-6-methyl-2-oxo-1-[3-(trifluoromethyl)phenyl]-1,2,3,4-tetrahydropyrimidine-5-carbonitrile]",0.2 L/h/kg,96%
"CC1=C(C#N)[C@@H](c2ccc(C#N)cc2S(C)(=O)=O)N(C)C(=O)N1c1cccc(C(F)(F)F)c1 [Example 33, (4S)-4-[4-Cyano-2-(methylsulfonyl)phenyl]-3,6-dimethyl-2-oxo-1-[3-(trifluoromethyl)phenyl]-1,2,3,4-tetrahydropyrimidine-5-carbonitrile]",0.6 L/h/kg,87%
